What was measured:
Type in all cases: cell-based
mitochondrial DNA = assay: Mitochondrial toxicity (lactate production, mitochondrial DNA); details: highest dose tested, 320 μM, data not shown
Protocol: Mitochondrial toxicity is also a safety concern with nucleoside analogs. SN1212 was also analyzed for mitochondrial toxicity. […] (Data not shown.)

[1] = system: HIV-1 RTMDR1, with 74V, 41L, 106A and 215Y mutations; assay: Sensitivity of NRTI-resistant HIV strain RTMDR1, MT-2 cells; details: Human immunodeficiency virus 1, MT2
Protocol: 0.1 ml of a 3×10^5 cells/ml MT-2 cell suspension were seeded in 96-well plates at 3×10^4 cells/well. The compounds to be assayed were diluted in a separate 96-well at ten times (10×) the concentration needed for the screen. 22 μl of the 10× compounds was then added to the wells in triplicate except for six control wells, containing uninfected MT-2 cells alone (3 wells) and untreated HIV-infected MT-2 cells (3 wells). This was followed by the addition of HIV-1 at an MOI of 0.01, except for the three wells serving as the uninfected control. 0.1 ml of cRPMI was added to the uninfected well instead of virus. After the addition of virus, the 96-well plate was centrifuged at 1,200×g for two hours to enhance the adsorption of the virus by the MT-2 cells (see, e.g., O'Doherty, J. Virol. 74:10074-10080 (2000)). After the centrifugation step, the 96-well plate was then incubated in a 37° C. incubator containing 5% CO2 for three days. At the end of this time period the virus and cells were mixed by gentle pipetting followed by a 1 minute spin at 600×g to pellet the cells. The supernatant of each well was then serially diluted 1,000-fold into new 96-well plates to serve as inoculum for the next passage and assayed by ELISA for the amount of p24 produced. The next passage was performed as described above, except that the virus used to infect the cells was derived from the 1,000-fold dilution plate.
To determine if there is resistance of HIV NRTI resistant strains to mutagenic nucleoside analogues, NRTI resistant strains were grown in the presence of 5-aza-dC to determine whether the EC50 for 5-aza-dC is different from the WT strain (HIV-1 LAI). […] Growth of HIV NRTI resistant strains in the presence of the appropriate concentration of NRTI was used as a positive control.
Three HIV NRTI resistant strains (HIV-1 LAI-M184V, HIV-1 RTMDR1, with 74V, 41L, 106A and 215Y mutations, and HIV-1 RTMC, with 67N, 70R, 215F and 219Q mutations) were used to test the effectiveness of 5-aza-dC. […]

[2] = Cytotoxicity on MT-2 cells (MTT); details: human
Protocol: For each compound, cytotoxicity was evaluated on MT-2 cells. MT-2 cells were seeded at 3×10^4 cells/well in 96-well plates. […] After 5 days growth in a 37° C. incubator containing 5% CO2, MTT was added to a final concentration of 0.5 mg/ml and then incubated for four hours at 37° C. 10% SDS in 0.02 N HCl was added to lyse the cells overnight at 37° C. The plates were read on a Tecan Genius microplate reader at wavelengths of 570 nm/650 nm. The dose response curve was graphed by comparing the treated cells with the untreated control and the IC50 was determined for each compound.

[3] = system: reverse transcriptase of HIV NL4-3; assay: DHAdC viral mutagenicity, sense strand of RT fragment; details: 50 μM
Protocol: The viral genomic DNA from cells treated with the deoxyribonucleoside analog 5-aza-dC (30 μM) was purified using a Qiagen DNeasy® Kit. 1 μg of genomic DNA was used to amplify a 1 kb region of the HIV-1 RT proviral DNA by PCR. The PCR product was then cloned into a TOPO® cloning vector. A Millipore Miniprep Kit was used to purify plasmid containing proviral inserts. About 45 positive clones were sequenced in both directions by a Beckman Coulter CEQ 8000. The sequencing results were analyzed and assembled using the DNASTAR Stagman program. Each mutated base was counted and the mutation rate was calculated over the total number of sequenced nucleotides.
Assessment of DHAdC viral mutagenicity was carried out as described above for 5-aza-dC. Mutagenesis of the sense strand of a 0.9 kb fragment of reverse transcriptase of HIV NL4-3 was determined after a single passage in SN1212 (50 μM) and compared to an untreated control.

[4] = system: hgprt gene in CHO (Chinese Hamster Ovary) cells; assay: hgprt assay, mutagenesis of cellular DNA, 6-thioguanine selection; details: 1 mM, data not shown
Protocol: (Data not shown.) An hgprt assay was also performed to test mutagenesis of cellular DNA by DHAdC. The assay was performed on CHO (Chinese Hamster Ovary) cells and mutants were selected for resistance to 6-thioguanine (6-TG). EMS (ethyl methyl sulfonate), a known mutagen, was used as a positive control.

SMILES: NC1=NC(=O)N([C@H]2C[C@H](O)[C@@H](CO)O2)CN1 [DHAdC, 1-(2-Deoxy-β-D-ribofuranosyl)-4-amino-1,2,5,6-tetrahydro-1,3,5-triazin-2-one]
- mitochondrial toxicity (increase in lactate production or inhibition of mitochondrial DNA) (mitochondrial DNA): does not demonstrate evidence of mitochondrial toxicity
- EC50 [1]: 6 µM
- IC50 at 5 days [2]: > 1000 µM
- C⇄T transitions, fold enhancement [3]: 4.6 fold
- mutation rate in HIV RT, fold higher than control [3]: 1.4 fold
- A→C C→A mutations ([3]; number of mutations): 1
- A→T T→A mutations ([3]; number of mutations): 1
- G→A A→G mutations ([3]; number of mutations): 17
- G→C C→G mutations ([3]; number of mutations): 3
- G→T T→G mutations ([3]; number of mutations): 3
- T→C C→T mutations ([3]; number of mutations): 12
- mutation rate % ([3]; single passage): 0.015%
- mutation rate in HIV RT ([3]; treated, control 0.0011): 0.0015
- mutation frequency of cellular gene hgprt [4]: did not increase above background
